Measured values as given in the Deep4Chem optical property database.

Experiment: solvent given as SMILES

Work on CN(C)c1ccc2nc(-c3ccc(C=C4C(=O)c5ccccc5C4=O)cc3)sc2c1 yielded an emission maximum (in C1CCCCC1) of 535 nm and an emission maximum (in ClC(Cl)Cl) of 727 nm.
In the case of CCCn1c(-c2cc(-c3nc4ccccc4n3CCC)cc(-c3nc4ccccc4n3CCC)c2)nc2ccccc21, the emission maximum (in CS(C)=O) is reported as 381 nm.
Work on COc1ccc(C2=C3C=CC(=[N+](C)C)C=C3[Si](C)(C)c3cc(N(C)C)ccc32)c(OC)c1 yielded an emission maximum (in O) of 663 nm.
CC(C)c1cccc(C(C)C)c1N1C(=O)c2ccc3cc4c(cc5ccc6c7c(ccc4c57)C(=O)N(c4c(C(C)C)cccc4C(C)C)C6=O)c4ccc(c2c34)C1=O showed an emission maximum (in ClCCl) of 668 nm.
Compound CCn1c2ccccc2c2cc3c(cc21)c1ccccc1n3CC has an emission maximum (in ClC(Cl)Cl) of 425 nm.
With CN(C)c1ccc(-c2ccc(-c3cc(-c4ccccc4)c(-c4ccccc4)c(-c4ccccc4)c3-c3ccccc3)s2)cc1 the emission maximum (in ClC(Cl)Cl) was 419 nm.
c1ccc(-c2nc(-c3ccccc3)nc(-c3ccc(-n4c5ccccc5c5cc6c(cc54)C(c4ccccc4)(c4ccccc4)c4ccccc4-6)cc3)n2)cc1 gave an emission maximum (in C1CCOC1) of 494.27 nm, an emission maximum (in CCCCCC) of 400.55 nm and an emission maximum (in Cc1ccccc1) of 442 nm. The emission maximum (in ClCCl) was 519.15 nm and the emission maximum (in O=P(c1ccccc1)(c1ccccc1)c1ccccc1Oc1ccccc1P(=O)(c1ccccc1)c1ccccc1) was 471 nm.
For CC1=C(I)C(C)=[N+]2C1=C(c1c(-c3ccccn3)nc3ccccn13)c1c(C)c(I)c(C)n1[B-]2(F)F, the emission maximum (in ClCCl) was 580 nm.
c1ccc(-n2c3ccccc3c3cc(-c4cccc(-n5c6ccccc6c6ncccc65)c4)ccc32)cc1 showed an emission maximum (in ClCCl) of 360 nm.
With COc1ccc(NC(=O)C(C(=O)Nc2ccc(OC)cc2)C(c2ccccc2O)c2c(C)[nH]c3ccccc23)cc1 (stereo not given) the emission maximum (in CO) was 350 nm and the emission maximum (in CS(C)=O) was 360 nm.
In the case of CC1=CC(C)=[N+]2C1=C(c1ccc3cccnc3n1)c1c(C)cc(C)n1[B-]2(F)F, the emission maximum (in CC#N) is reported as 516 nm, the emission maximum (in CCCCCC) is reported as 524 nm and the emission maximum (in CO) is reported as 521 nm. For the same compound, the emission maximum (in ClC(Cl)Cl) was 527 nm and the emission maximum (in ClCCl) was 522 nm.
For O=c1c2cc(F)ccc2nc2n1[B-](F)(F)[n+]1ccccc1-2, the emission maximum (in CC#N) was 437 nm and the emission maximum (in ClCCl) was 438 nm.
In the case of Cc1cc(O)c(C(=O)/C=C/c2cccc(O)c2)c(=O)o1, the emission maximum (in CC#N) is reported as 523 nm and the emission maximum (in ClCCl) is reported as 491 nm.
Work on c1ccc(-c2ccc(-c3ccc(-c4cc(-c5ccc(-c6ccc(-c7ccccc7)cc6)cc5)cc(-c5ccc(-c6ccc(-c7ccccc7)cc6)cc5)c4)cc3)cc2)cc1 yielded an emission maximum (in C1COCCO1) of 375 nm.
For CC(=O)c1nc(-c2ccc(N(c3ccccc3)c3ccccc3)cc2)oc1C, the emission maximum (in CC#N) was 452 nm, the emission maximum (in CCCCCC) was 385 nm and the emission maximum (in CCO) was 468 nm. For the same compound, the emission maximum (in CCOC(C)=O) was 419 nm, the emission maximum (in CCOCC) was 408 nm and the emission maximum (in ClCCl) was 448 nm.
COc1ccc(N2C(=O)c3ccccc3NC2C(C)(C)C)cc1 (stereo not given) showed an emission maximum (in CC#N) of 413 nm, an emission maximum (in CO) of 444 nm and an emission maximum (in ClC(Cl)Cl) of 410 nm. The emission maximum (in c1ccccc1) was 400 nm.
Compound CC(C)CCCN1c2ccccc2CCc2ccccc21 has an emission maximum (in CC#N) of 352 nm and an emission maximum (in CO) of 360 nm.
C(#Cc1nc2ccccc2s1)c1ccc(N(c2ccccc2)c2ccccc2)cc1 gave an emission maximum (in Cc1ccccc1) of 437 nm.
Work on c1ccc(-c2nc(-c3ccc(-c4nc(-c5ccccc5)c(-c5ccccc5)o4)cc3)oc2-c2ccccc2)cc1 yielded an emission maximum (in C1COCCO1) of 428 nm.
Cc1cn(C)c(=O)nc1-n1cncn1 gave an emission maximum (in O) of 389 nm.
Work on CN(C)c1ccc2c(-c3ccc(N)cc3C(=O)[O-])c3ccc(=[N+](C)C)cc-3oc2c1 yielded an emission maximum (in CCO) of 564 nm and an emission maximum (in O) of 572 nm.
O=c1oc2ccccc2cc1C#Cc1ccccc1 showed an emission maximum (in CC#N) of 406 nm.
In the case of O=[N+]([O-])c1ccc(O)c(-c2nc3c(c4c2-c2ccccc2CC4)-c2ccccc2CC3)c1, the emission maximum (in ClCCl) is reported as 541 nm.
Work on CCn1c(-c2ccc(N(c3ccccc3)c3cccc4ccccc34)cc2)c(-c2ccc3ccccc3c2)c(-c2ccc3ccccc3c2)c1-c1ccc(N(c2ccccc2)c2cccc3ccccc23)cc1 yielded an emission maximum (in CCOC(C)=O) of 434 nm.
Oc1ccc(-c2ccco2)cc1-c1nc2ccccc2s1 gave an emission maximum (in CCO) of 435 nm, an emission maximum (in ClCCl) of 406 nm and an emission maximum (in O) of 577 nm.
For CN(C)c1ccc(C2=Nc3scc(-c4ccc([N+](=O)[O-])cc4)[n+]3[B-](F)(F)O2)cc1, the emission maximum (in C1CCOC1) was 454 nm, the emission maximum (in CC#N) was 453 nm and the emission maximum (in Cc1ccccc1) was 447 nm. The emission maximum (in ClCCl) was 454 nm.
CC1(C)C(/C=C/C2=C(Cl)C(=C/C=C3/N(Cc4ccccc4)c4ccccc4C3(C)C)/CCC2)=[N+](Cc2ccccc2)c2ccccc21 showed an emission maximum (in CO) of 813 nm.
For N#Cc1ccc(-n2c3ccccc3c3c2c2ccccc2n3-c2ccccc2)cc1, the emission maximum (in Cc1ccccc1) was 460 nm.
Cc1cc(C)c(B(c2c(C)cc(C)cc2C)N2c3ccccc3C3(c4ccccc4-c4ccccc43)c3ccccc32)c(C)c1 showed an emission maximum (in C1CCCCC1) of 527 nm, an emission maximum (in Cc1ccccc1) of 538 nm and an emission maximum (in ClCCl) of 560 nm.
For CCCCCCCCC1(CCCCCCCC)c2cc(-c3ccc(C(=O)OC)cc3)ccc2-c2ccc(-c3ccc(C(=O)OC)cc3)cc21, the emission maximum (in ClC(Cl)Cl) was 388 nm.
For c1ccc(-n2c(-c3c(-n4c5ccccc5c5ccccc54)cccc3-n3c4ccccc4c4ccccc43)nc3ccccc32)cc1, the emission maximum (in C1CCOC1) was 418 nm.
Compound CC(=O)c1ccc(-c2nc3ccc(N(C)C)cc3s2)cc1 has an emission maximum (in C1CCCCC1) of 435 nm, an emission maximum (in CC#N) of 588 nm and an emission maximum (in CC(C)O) of 611.34 nm. It also gave an emission maximum (in CO) of 676 nm, an emission maximum (in CS(C)=O) of 587.85 nm and an emission maximum (in ClC(Cl)Cl) of 524 nm. It also gave an emission maximum (in c1ccccc1) of 487.85 nm.
Compound Oc1c(-c2ccco2)cccc1-c1nc2ccccc2s1 has an emission maximum (in CCO) of 575 nm, an emission maximum (in ClCCl) of 577 nm and an emission maximum (in O) of 569 nm.
Compound CC(C)=CC(=O)c1cc2c(cc1F)NC(C)(C)CC2=O has an emission maximum (in CC#N) of 422 nm and an emission maximum (in CCO) of 459 nm.
For CC1=C(C#Cc2ccccc2)C2=Cc3c(C#Cc4ccccc4)c(C)c(C)n3[B-](F)(F)[N+]2=C1C, the emission maximum (in CC#N) was 579 nm.
Cc1ccc2c(c1)C1(c3ccccc3-c3ccccc31)c1cc(C)ccc1N2c1ccc(-c2nc(-c3ccccc3)cc(-c3ccccc3)n2)cc1 gave an emission maximum (in Cc1ccccc1) of 458 nm and an emission maximum (in O=P(c1ccccc1)(c1ccccc1)c1ccc2oc3ccc(P(=O)(c4ccccc4)c4ccccc4)cc3c2c1) of 464 nm.
With CCCCCCN1C(=O)C(c2ccc(-c3ccc(-n4c5ccccc5c5ccccc54)cc3)cc2)=C(c2ccc(-c3ccc(-n4c5ccccc5c5ccccc54)cc3)cc2)C1=O the emission maximum (in ClC(Cl)Cl) was 552 nm and the emission maximum (in c1ccc2c(c1)c1ccccc1n2-c1ccc(-c2ccc(-n3c4ccccc4c4ccccc43)cc2)cc1) was 580 nm.
With N#Cc1nn(-c2cc(F)cc(F)c2)nc1N1CCCC1 the emission maximum (in CC#N) was 435 nm.
In the case of CCCC1(CCC)c2cc(-c3ccc(OC)cc3)ccc2-c2ccc(-c3ccc4c(c3)C(CCC)(CCC)c3cc(-c5ccc(OC)cc5)ccc3-4)cc21, the emission maximum (in C1CCCCC1) is reported as 395 nm.
For COc1ccc(-c2cn3ccc[n+]3[n-]2)cc1, the emission maximum (in ClCCl) was 413 nm.
COc1ccc2c(c1)c1c(c3cc(OC)ccc32)=[N+]2C(=C(c3c(C)cc(C)cc3C)c3cc4c5cc(OC)ccc5c5ccc(OC)cc5c4n3[B-]2(F)F)C=1 gave an emission maximum (in C1CCCCC1) of 710 nm, an emission maximum (in C1CCOC1) of 713 nm and an emission maximum (in CC#N) of 711 nm. The emission maximum (in Cc1ccccc1) was 717 nm and the emission maximum (in ClCCl) was 713 nm.
In the case of CCCc1ccc(C#Cc2cc(C#Cc3ccc(CCC)cc3)c3ccc4c(C#Cc5ccc(CCC)cc5)cc(C#Cc5ccc(CCC)cc5)c5ccc2c3c54)cc1, the emission maximum (in ClCCl) is reported as 494 nm.
For CC(C)(C)NC(=O)c1cccc2ccc3c4ccc(F)cc4c4cc(F)ccc4c3c12, the emission maximum (in ClCCl) was 388 nm.
CCCCCCOc1ccc(C#Cc2ccc(C#CC#Cc3ccc(C#Cc4ccc(OCCCCCC)c(OCCCCCC)c4)c4nsnc34)c3nsnc23)cc1OCCCCCC gave an emission maximum (in CN(C)C=O) of 638 nm, an emission maximum (in COc1ccccc1) of 555 nm and an emission maximum (in Cc1ccccc1) of 528 nm. It also gave an emission maximum (in ClC(Cl)Cl) of 563 nm, an emission maximum (in ClCCCl) of 591 nm and an emission maximum (in ClCCl) of 582 nm.
Compound CC(C)(C)c1ccc2c(c1)c1cc(C(C)(C)C)ccc1n2-c1ccc(N(c2ccc(-c3ccc(-c4ccc(-c5ccc(-c6ccc(N(c7ccc(-n8c9ccc(C(C)(C)C)cc9c9cc(C(C)(C)C)ccc98)cc7)c7ccc(-n8c9ccc(C(C)(C)C)cc9c9cc(C(C)(C)C)ccc98)cc7)cc6)cc5)c5nsnc45)cc3)cc2)c2ccc(-n3c4ccc(C(C)(C)C)cc4c4cc(C(C)(C)C)ccc43)cc2)cc1 has an emission maximum (in ClCCl) of 513 nm.
Work on c1ccc(-c2nc(-c3ccc(N4CCCC4)cc3)cc(-c3ccc4ccccc4c3)n2)cc1 yielded an emission maximum (in ClC(Cl)Cl) of 498 nm.
COC(=O)C1=C(C(=O)OC)C2(c3cc(Cl)ccc3-c3c(Cl)cc(Cl)cc32)C2(/C=C/c3ccccc3)c3cc(OC)c(OC)cc3CCN12 (stereo not given) gave an emission maximum (in ClCCl) of 487 nm.
In the case of CCOC(=O)/C(C#N)=C\c1ccc2c(c1)c1ccccc1n2-c1ccc(OC)cc1, the emission maximum (in C1CCOC1) is reported as 460 nm, the emission maximum (in CC#N) is reported as 522 nm and the emission maximum (in CC(C)=O) is reported as 508 nm. The emission maximum (in CCOC(C)=O) was 479 nm, the emission maximum (in CO) was 532 nm and the emission maximum (in CS(C)=O) was 542 nm. It also gave an emission maximum (in Cc1ccccc1) of 455 nm and an emission maximum (in ClC(Cl)Cl) of 486 nm.
For C(#Cc1ccccc1C#Cc1ccccc1)c1ccccc1, the emission maximum (in CC#N) was 360 nm.
Compound N#CC1=CC(c2ccccc2)=CC(C#N)=P1(c1ccccc1)c1ccccc1 has an emission maximum (in ClC(Cl)Cl) of 525 nm.
COc1ccc(-c2csc(/C(C#N)=N\Nc3ccc(C#N)cc3)n2)cc1 gave an emission maximum (in CC#N) of 505 nm, an emission maximum (in CCO) of 508 nm and an emission maximum (in Cc1ccccc1) of 494 nm. It also gave an emission maximum (in ClCCl) of 527 nm.
With CC(C)CCC[C@@H](C)[C@H]1CC[C@H]2[C@@H]3CC=C4C[C@@H](OC(=O)Oc5cc(/C=C/c6ccc(N(C)C)cc6)ccc5[N+](=O)[O-])CC[C@]4(C)[C@H]3CC[C@]12C the emission maximum (in C1CCCCC1) was 503 nm, the emission maximum (in C1COCCO1) was 573 nm and the emission maximum (in CCCCCCC) was 503 nm. It also gave an emission maximum (in Cc1ccccc1) of 554 nm.
Cc1ccc2c(c1)C1(c3ccccc3-c3ccccc31)c1cc(C)ccc1N2c1ccc2c(c1)Sc1ccccc1P2(=S)c1ccccc1 (stereo not given) gave an emission maximum (in Cc1ccccc1) of 454.61 nm.
